Results on 17 molecules are retold here after article PMC8383264, “Structural Characterization of the Reaction and Substrate Specificity Mechanisms of Pathogenic Fungal Acetyl-CoA Synthetases” (ACS Chemical Biology, 2021).

A value given as a limit tells only on which side of the number the result lay.

A word on the Ki: it is the equilibrium dissociation constant of an inhibitor or competing ligand from its target. Low readings indicate tighter binding, high ones weaker binding. Usually IC50 stands for the point on the concentration scale where inhibition reaches its midpoint. Read a low IC50 as greater potency. Usually Km stands for the concentration of substrate that gives half-maximal velocity.

Series [1] has as its target T1, CnAcs1 (Cryptococcus neoformans, UniProt J9VFT1). The series is described as follows: biochemical. The class given is binding. The note with it: read-out: thermal shift (ΔTm).
The target in series [2] is T1, CnAcs1. The series is described as follows: Coupled continuous pyrophosphate detection assay (EnzChek) of ACS activity. To be noted: for utilization as substrate for CnAcs1: alternative acid substrates.
A further series concerns the target C. albicans Acs1 (Candida albicans, UniProt Q8NJN3). The description is as above.
For the next series, the target named is T2, A. fumigatus Acs1 (Aspergillus fumigatus, UniProt Q4WQ02).
T2 sequence (Q4WQ02 2-670): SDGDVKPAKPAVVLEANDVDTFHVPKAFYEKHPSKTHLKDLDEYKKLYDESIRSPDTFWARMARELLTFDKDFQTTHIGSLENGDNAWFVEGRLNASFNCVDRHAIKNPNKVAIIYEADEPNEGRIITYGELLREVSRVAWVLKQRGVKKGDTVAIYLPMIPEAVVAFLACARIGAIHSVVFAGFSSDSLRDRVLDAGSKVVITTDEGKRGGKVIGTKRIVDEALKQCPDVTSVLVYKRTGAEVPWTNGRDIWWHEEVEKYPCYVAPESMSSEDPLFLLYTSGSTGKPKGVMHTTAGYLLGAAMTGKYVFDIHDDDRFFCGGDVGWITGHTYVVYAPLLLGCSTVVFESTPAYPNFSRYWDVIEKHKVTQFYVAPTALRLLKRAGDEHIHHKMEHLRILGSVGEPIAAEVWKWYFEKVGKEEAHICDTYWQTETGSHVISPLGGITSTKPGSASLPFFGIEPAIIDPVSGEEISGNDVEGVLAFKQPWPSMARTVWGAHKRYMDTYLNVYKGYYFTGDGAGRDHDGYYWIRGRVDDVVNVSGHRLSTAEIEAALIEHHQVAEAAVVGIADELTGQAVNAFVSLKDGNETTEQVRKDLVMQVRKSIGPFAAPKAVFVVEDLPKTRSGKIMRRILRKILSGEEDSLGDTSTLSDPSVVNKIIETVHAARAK
Described as above.

In another series the target is C. immitis Acs1 (Coccidioides immitis, UniProt J3KJC6). The series is described as follows: biochemical.
C. immitis Acs1, sequence (J3KJC6 2-691 limits assumed): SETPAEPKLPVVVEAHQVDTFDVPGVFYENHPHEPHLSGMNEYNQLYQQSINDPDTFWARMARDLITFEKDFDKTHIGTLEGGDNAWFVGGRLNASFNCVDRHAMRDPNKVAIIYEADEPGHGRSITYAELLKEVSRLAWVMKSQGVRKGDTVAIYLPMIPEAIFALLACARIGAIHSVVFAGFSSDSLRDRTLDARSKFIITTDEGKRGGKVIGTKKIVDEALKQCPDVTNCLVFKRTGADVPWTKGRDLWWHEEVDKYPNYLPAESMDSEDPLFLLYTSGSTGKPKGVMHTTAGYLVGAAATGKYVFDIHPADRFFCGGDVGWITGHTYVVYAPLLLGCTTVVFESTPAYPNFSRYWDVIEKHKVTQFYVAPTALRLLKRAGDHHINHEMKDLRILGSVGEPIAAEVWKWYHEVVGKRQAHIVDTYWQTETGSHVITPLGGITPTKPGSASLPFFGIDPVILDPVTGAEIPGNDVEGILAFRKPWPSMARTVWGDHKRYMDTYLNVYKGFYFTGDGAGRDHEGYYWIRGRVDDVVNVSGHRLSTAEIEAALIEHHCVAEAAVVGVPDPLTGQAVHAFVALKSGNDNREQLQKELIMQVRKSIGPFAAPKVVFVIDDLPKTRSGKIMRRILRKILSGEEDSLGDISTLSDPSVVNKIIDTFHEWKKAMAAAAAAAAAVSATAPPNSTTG
The next series has as its target C. posadasii Acs1 (Coccidioides posadasii, UniProt C5PGB4). Nature of the series: biochemical.
For series [3], the system named is CC(C)(COP(=O)(O)OP(=O)(O)OC[C@H]1O[C@@H](n2cnc3c(N)ncnc32)[C@H](O)[C@@H]1OP(=O)(O)O)[C@@H](O)C(=O)NCCC(=O)NCCS. The series is described as follows: purified protein, by the assay type.
In series [4] the test system is Nc1ncnc2c1ncn2[C@@H]1O[C@H](COP(=O)(O)OP(=O)(O)OP(=O)(O)O)[C@@H](O)[C@H]1O. Nature of the series: purified protein, by the assay type. The note with it: 37.0 °C.
Substrate in series [5]: Nc1ncnc2c1ncn2[C@@H]1O[C@H](COP(=O)(O)OP(=O)(O)OP(=O)(O)O)[C@@H](O)[C@H]1O
Nature of the series: purified protein, by the assay type. To be noted: 37 °C, ±S.E.M.

Substrate in series [6]: CC(C)(COP(=O)(O)OP(=O)(O)OC[C@H]1O[C@@H](n2cnc3c(N)ncnc32)[C@H](O)[C@@H]1OP(=O)(O)O)[C@@H](O)C(=O)NCCC(=O)NCCS
The series is described as follows: purified protein, by the assay type. To be noted: 37 °C, ±S.E.M.

Where [7] appears, read: other: commercially available enzyme, control, other substrates in excess.
Setting [8] is: other: substrate Km, other substrates in excess.
The mark [9] stands for this setting: other: substrate Km, other substrates in excess (ATP 2.5 mM, CoA 1 mM, sodium acetate 0.5 mM).

C. albicans Acs1, sequence (Q8NJN3 2-671 limits assumed): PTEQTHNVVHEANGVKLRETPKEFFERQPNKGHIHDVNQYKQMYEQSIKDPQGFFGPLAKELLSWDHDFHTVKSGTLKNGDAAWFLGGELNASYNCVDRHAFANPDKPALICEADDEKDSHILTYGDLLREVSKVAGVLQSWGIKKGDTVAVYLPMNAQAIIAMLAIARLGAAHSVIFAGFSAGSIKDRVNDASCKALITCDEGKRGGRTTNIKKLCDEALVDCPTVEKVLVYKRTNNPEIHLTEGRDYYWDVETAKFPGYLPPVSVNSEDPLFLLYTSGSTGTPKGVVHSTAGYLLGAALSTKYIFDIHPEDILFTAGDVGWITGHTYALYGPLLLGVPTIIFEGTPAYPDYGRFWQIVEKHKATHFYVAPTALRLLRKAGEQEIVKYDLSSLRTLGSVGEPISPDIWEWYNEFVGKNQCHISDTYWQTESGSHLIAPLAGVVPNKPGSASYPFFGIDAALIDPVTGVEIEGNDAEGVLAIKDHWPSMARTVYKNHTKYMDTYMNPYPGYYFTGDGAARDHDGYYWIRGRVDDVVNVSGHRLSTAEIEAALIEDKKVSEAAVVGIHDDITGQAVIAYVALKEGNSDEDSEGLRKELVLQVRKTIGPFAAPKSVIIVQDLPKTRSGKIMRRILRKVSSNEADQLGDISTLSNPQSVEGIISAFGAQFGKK
C. posadasii Acs1, sequence (C5PGB4 2-691 limits assumed): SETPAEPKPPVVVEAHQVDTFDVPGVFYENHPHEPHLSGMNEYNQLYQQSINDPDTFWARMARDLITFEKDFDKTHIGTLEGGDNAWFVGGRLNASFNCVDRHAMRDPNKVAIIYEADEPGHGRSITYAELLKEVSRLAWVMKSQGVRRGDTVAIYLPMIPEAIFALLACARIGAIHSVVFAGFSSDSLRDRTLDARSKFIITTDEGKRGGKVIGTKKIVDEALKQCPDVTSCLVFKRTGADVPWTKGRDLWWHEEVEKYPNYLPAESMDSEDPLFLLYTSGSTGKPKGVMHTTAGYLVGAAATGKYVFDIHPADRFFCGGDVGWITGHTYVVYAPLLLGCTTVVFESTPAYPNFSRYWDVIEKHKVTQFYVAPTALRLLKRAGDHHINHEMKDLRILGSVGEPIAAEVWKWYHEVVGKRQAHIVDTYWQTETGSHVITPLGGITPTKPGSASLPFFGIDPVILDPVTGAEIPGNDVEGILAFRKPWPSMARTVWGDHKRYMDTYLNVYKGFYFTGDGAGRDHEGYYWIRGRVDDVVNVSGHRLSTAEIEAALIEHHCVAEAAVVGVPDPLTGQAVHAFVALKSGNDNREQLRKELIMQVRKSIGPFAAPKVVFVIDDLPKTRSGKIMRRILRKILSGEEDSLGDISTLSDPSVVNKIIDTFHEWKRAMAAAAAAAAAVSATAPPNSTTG

On to `Nc1ncnc2c1ncn2[C@@H]1O[C@H](COS(N)(=O)=O)[C@@H](O)[C@H]1O` [AMS, adenosine monosulfonamide], for which, at CnAcs1 [1], the ΔTm at 1000 µM was -0.2 °C. This molecule also showed a Ki at CnAcs1 [2] greater than 50000 nM.
On to `Nc1ncnc2c1ncn2[C@@H]1O[C@H](COP(=O)(O)OP(=O)(O)OP(=O)(O)O)[C@@H](O)[C@H]1O` [ATP, adenosine triphosphate, reference compound], for which the “calculated binding energy ΔG” value at CnAcs1 [2] was -6 kcal/mol.
Molecule `CC(=O)NS(=O)(=O)OC[C@H]1O[C@@H](n2cnc3c(N)ncnc32)[C@H](O)[C@@H]1O` [acyl-AMS, acetyl-adenosine monosulfonamide] came in with a Ki at CnAcs1 [2] of 590 nM.
`CCCCOP(=O)(O)OC[C@H]1O[C@@H](n2cnc3c(N)ncnc32)[C@H](O)[C@@H]1O` [butyl-AMP]: the ΔTm at 1000 µM on CnAcs1 [1] came out at 6.7 °C. Moreover, the IC50 against C. albicans Acs1, against CnAcs1 [2] and against A. fumigatus Acs1 was greater than 50000 nM each time. Also, the Ki at CnAcs1 [2] is greater than 50000 nM. Besides, on CnAcs1 [2], the “inhibition of CnAcs1” value is on record as “no inhibition”.
Consider `CCCC(=O)O` [butyrate, reference compound], for which the “utilization as substrate for CnAcs1” value on CnAcs1 [2] is on record as “neither valerate nor butyrate were CnAcs1 substrates”. Moreover, the “inhibition of acetate utilization” value on CnAcs1 [2] (non-preferred acid substrate) is listed as “does not inhibit”.
Turning to `CCOP(=O)(O)OC[C@H]1O[C@@H](n2cnc3c(N)ncnc32)[C@H](O)[C@@H]1O` [ethyl-AMP], the IC50 was 60 nM against C. immitis Acs1; 70 nM against C. posadasii Acs1; 290 nM against C. albicans Acs1; 2100 nM on CnAcs1 [2]; 60 nM on A. fumigatus Acs1. Moreover, at CnAcs1 [1], the ΔTm at 1000 µM came to 14.2 °C. For the same molecule, the Ki at CnAcs1 [2] turned out to be 470 nM.
On to `NCC(=O)NS(=O)(=O)OCC1OC(n2cnc3c(N)ncnc32)C(O)C1O` (centres unmarked) [glycine derivative of AMS], for which, on CnAcs1 [2], the “inhibition of CnAcs1” value is given as “no inhibition”.
On to `COP(=O)(O)OC[C@H]1O[C@@H](n2cnc3c(N)ncnc32)[C@H](O)[C@@H]1O` [methyl-AMP], for which the ΔTm at 1000 µM on CnAcs1 [1] turned out to be 8.3 °C. On CnAcs1 [2], affinity was put at a Ki of 39000 ± 11000 nM and the “fold less active than ethyl AMP ester” value is listed as roughly 100 fold.
As to `CCC(=O)O` [propionate, reference compound], the “Km fold higher than acetate” value at CnAcs1 [2] (alternative acid substrate, relative to acetate) is reported as greater than 100 fold.
For the molecule `CCCOP(=O)(O)OC[C@H]1O[C@@H](n2cnc3c(N)ncnc32)[C@H](O)[C@@H]1O` [propyl-AMP, propyl-adenosine monophosphate ester], on CnAcs1 [1], the ΔTm at 1000 µM was 12.2 °C. Moreover, on CnAcs1 [2], affinity was put at a Ki of 1240 ± 200 nM.
Take `CCCCC(=O)O` [valerate, reference compound]: the “utilization as substrate for CnAcs1” value at CnAcs1 [2] is on record as “neither valerate nor butyrate were CnAcs1 substrates”.
Consider “C. albicans Acs1 (Candida albicans SC5314)”, for which, in [3] (other: substrate Km, other substrates in excess, 37 °C, ±S.E.M.), the Km worked out at 471 ± 45 µM.
As for “C. immitis Acs1 (Coccidioides immitis RS)”, the values for the Km in series [4] and in [3] (37.0 °C) were 102 ± 8 µM and 441 ± 45 µM, respectively.
For “C. posadasii Acs1 (Coccidioides posadasii C735 delta SOWgp)”, the Km in series [4] was 117 ± 15 µM; in [3] (37.0 °C) it was 314 ± 32 µM.

B1: S. cerevisiae Acs1 (Saccharomyces cerevisiae S288C) (protein)
chain: MSPSAVQSSKLEEQSSEIDKLKAKMSQSAATAQQKKEHEYEHLTSVKIVPQRPISDRLQPAIATHYSPHLDGLQDYQRLHKESIEDPAKFFGSKATQFLNWSKPFDKVFIPDPKTGRPSFQNNAWFLNGQLNACYNCVDRHALKTPNKKAIIFEGDEPGQGYSITYKELLEEVCQVAQVLTYSMGVRKGDTVAVYMPMVPEAIITLLAISRIGAIHSVVFAGFSSNSLRDRINDGDSKVVITTDESNRGGKVIETKRIVDDALRETPGVRHVLVYRKTNNPSVAFHAPRDLDWATEKKKYKTYYPCTPVDSEDPLFLLYTSGSTGAPKGVQHSTAGYLLGALLTMRYTFDTHQEDVFFTAGDIGWITGHTYVVYGPLLYGCATLVFEGTPAYPNYSRYWDIIDEHKVTQFYVAPTALRLLKRAGDSYIENHSLKSLRCLGSVGEPIAAEVWEWYSEKIGKNEIPIVDTYWQTESGSHLVTPLAGGVTPMKPGSASFPFFGIDAVVLDPNTGEELNTSHAEGVLAVKAAWPSFARTIWKNHDRYLDTYLNPYPGYYFTGDGAAKDKDGYIWILGRVDDVVNVSGHRLSTAEIEAAIIEDPIVAECAVVGFNDDLTGQAVAAFVVLKNKSSWSTATDDELQDIKKHLVFTVRKDIGPFAAPKLIILVDDLPKTRSGKIMRRILRKILAGESDQLGDVSTLSNPGIVRHLIDSVKL
For B1, the Michaelis-Menten constant (Km) in series [5] (setting [7]) was determined as 161 ± 73 µM; in series [6] (setting [7]) it was 348 ± 43 µM.

B2: A. fumigatus Acs1 (Aspergillus fumigatus Af293) (protein)
chain: SDGDVKPAKPAVVLEANDVDTFHVPKAFYEKHPSKTHLKDLDEYKKLYDESIRSPDTFWARMARELLTFDKDFQTTHIGSLENGDNAWFVEGRLNASFNCVDRHAIKNPNKVAIIYEADEPNEGRIITYGELLREVSRVAWVLKQRGVKKGDTVAIYLPMIPEAVVAFLACARIGAIHSVVFAGFSSDSLRDRVLDAGSKVVITTDEGKRGGKVIGTKRIVDEALKQCPDVTSVLVYKRTGAEVPWTNGRDIWWHEEVEKYPCYVAPESMSSEDPLFLLYTSGSTGKPKGVMHTTAGYLLGAAMTGKYVFDIHDDDRFFCGGDVGWITGHTYVVYAPLLLGCSTVVFESTPAYPNFSRYWDVIEKHKVTQFYVAPTALRLLKRAGDEHIHHKMEHLRILGSVGEPIAAEVWKWYFEKVGKEEAHICDTYWQTETGSHVISPLGGITSTKPGSASLPFFGIEPAIIDPVSGEEISGNDVEGVLAFKQPWPSMARTVWGAHKRYMDTYLNVYKGYYFTGDGAGRDHDGYYWIRGRVDDVVNVSGHRLSTAEIEAALIEHHQVAEAAVVGIADELTGQAVNAFVSLKDGNETTEQVRKDLVMQVRKSIGPFAAPKAVFVVEDLPKTRSGKIMRRILRKILSGEEDSLGDTSTLSDPSVVNKIIETVHAARAK
For B2, the Km in series [5] (setting [8]) came to 42 ± 11 µM; in series [6] (setting [8]) it was 340 ± 26 µM.

B3: CnAcs1 (Cryptococcus neoformans H99) (protein)
chain: GKTEVAPGVHHVHPLPDSVPESEDLFAPPPRMQGKEGRPKPHIGPNYESYVKEWAKTVGPNSDEWWAAKARETLDWYDDFKTVRAGGFEHGDVQWFPEGTLNAAYNCLDRHYYKNPKKTAIIYEADEPSESREVSYEELMQETCRVANVLKSYGVKKGDAVSIYLPMTWQAAAAFLACARIGAIHSAVFAGFSAESLRDRVNDCECKVLITTDEGRRGGKTIATKQIVDAALQQCPLVENVLVLRRTGNKVPMTEGRDKWWDEECAKMPAYCPCERMASEDPLFILYTSGSTGKPKGVVHSTAGYLLGTALTLKYVFDAHPDDRFACMADIGWITGHSYIIYGPLANGITTAVFESTPVYPTPSRYWDFVDKWKATQLYTAPTAIRLLRRMGEDHVKNHDLSSLRVLGSVGEPINPEAWHWYNDFAGKNQCAIVDTYWMTETGSISIAPLPGAISTKPGSATFPFFGMDVDIIDPQTGQVLEGNDVEGVLVARRPWPSIARTVYRDHKRYLETYMKPYPGYFFFGDGAARDYDGYMWIKGRVDDVINVSGHRLSTAEVESALILHKGVAETAVVGCADDLTGQAVYAFVTMKPEFDLKATKEADLSKELAIQVRKVIGPFAAPKKIYLVSDLPKTRSGKIMRRVLRKIVAGEGDQLGDLSSIADPQIVEEVKQKVTGSA
For B3, the Km in [5] (setting [9]) was 59 ± 10 µM; in [6] (setting [9]), 880 ± 170 µM.
